Eleven molecules from patent US5618814A, “Trisubstituted pyrimido [5,4-d] pyrimidines for modulating multi-drug resistance and pharmaceutical compositions containing these compounds” (Dr. Karl Thomae GmbH, priority 1993, dated 1997) can be followed below.

Read-outs that look alike come from different tables or passages of the source.

Series [1] has as its system adriamycin-resistant S 180 mouse sarcoma cells. Nature of the series: Cytotoxicity in proliferating adriamycin-resistant S 180 mouse sarcoma cells (MTT, 6 days) in the absence or presence of adriamycin. The note with it: S-180, 144 h. Type of series: cell-based. The protocol: was tested on cells resistant to adriamycin as follows:
Proliferating, adriamycin-resistant S 180 mouse sarcoma cells were cultivated for six days in the presence of various concentrations of test substances. Concentrations of the test substances with a cytotoxic or cytostatic effect were indicated by reduced cell growth or by the cells dying off. The end point of the assay is the number of living cells per culture which is determined indirectly, making use of the property of vital cells to reduce the dye MTT [=3-(4,5-dimethylthiazol-2-yl)-2,5-diphenyltetrazoliumbromide] to coloured formazane. The IC50 denotes the concentration of a test substance which reduces the number of vital cells per culture vessel to 50% of the untreated control. […] Therefore, two IC50 values are obtained for each test substance, one in the presence of adriamycin (IC50 ADR), the other in the absence of adriamycin (IC50). The difference in the logarithms (to the base ten) of the two IC50 values: Δ=lgIC50-lgIC50 ADR is a measure of the increase in the cytotoxicity of the test substance brought about by adriamycin.
Exponentially growing adriamycin-resistant or adriamycin-sensitive S 180 cells were plated out in 96-well flat-bottomed microtitre dishes at a rate of 2000 cells per well in 100 μl of growth medium (RPMI-1640 containing 10% foetal calf serum). The culture dishes were incubated in an incubator at 37° C., 5% CO2 at 100% relative humidity. After 24 hours, 50 μl of growth medium containing various concentrations of test substance and 50 μl of growth medium with or without adriamycin were added to each well. Following a further 6-day cultivation period, 50 μl of tetrazolium salt solution [5 mg of 3-(4,5-dimethylthiazol-2-yl)-2,5-diphenyl-tetrazoliumbromide per ml of phosphate-buffered saline solution, diluted 1:5 (v/v) with RPMI-1640 before use] were pipetted into each well. After […] incubation the culture medium was carefully suction filtered and the formazane formed intracellularly was solubilised with 150 μl of dimethylsulphoxide per well. The dishes were briefly shaken and the optical density was measured at 570 nm with a photometer such as a Dynatech MR-600 apparatus. The formation of the coloured formazane by reduction of the tetrazolium salt is proportional to the number of living cells. The averages of three measurements were used to calculate the IC50 values (dilution stage: 1:2).

A short description of series [2]: Tolerability after i.v. administration in mice. Type of series: in vivo. The note with it: 100 mg/kg i.v. in mice.
The mark [3] stands for this setting: Adriamycin 0 ng/ml (absence of adriamycin), read-out: IC50.
Where [4] appears, read: in presence of Adriamycin 100 ng/ml, read-out: IC50 (IC50 ADR).

One may read the IC50 as the concentration that inhibits the measured activity by half. As for `CN(Cc1ccccc1)c1ncnc2c(N3CCOCC3)nc(N3CCC(N(C)C)CC3)nc12` [Substance A, 2-[4-(N,N-dimethylamino)-piperidino]-8-(N-benzyl-N-methyl-amino)-4-morpholino-pyrimido [5,4-d]pyrimidine], the half-inhibitory concentration (IC50) in series [1] (setting [3]) was 1 µg/mL; in series [1] (setting [4]) it was 0.3 µg/mL.
On the same counts, the results for `COC(=O)NC1CCN(c2nc(N3CCOCC3)c3ncnc(N(C)Cc4ccccc4)c3n2)CC1` [Substance B] are 10 µg/mL and 1 µg/mL.
Taken in the same sequence, the figures for `CN(Cc1ccccc1)c1ncnc2c(N3CCCCC3)nc(N3CCC(N(C)C)CC3)nc12` [Substance C, 2-[4-(N,N-dimethylamino)-piperidino]-8-(N-benzyl-N-methyl-amino)-4-piperidino-pyrimido [5,4-d]pyrimidine] were 2 µg/mL and 0.3 µg/mL.
On the same counts, the results for `CN(Cc1ccccc1)c1ncnc2c(N3CCOCC3)nc(N3CCC(N4CCCCC4)CC3)nc12` [Substance D, 8-(N-benzyl-N-methyl-amino)-2-[4-(piperidino)-piperidin-1-yl]-4-morpholino-pyrimido [5,4-d]pyrimidine] are 3 µg/mL and 0.3 µg/mL.
As to `CN(C)CC1CCN(c2nc(N3CCOCC3)c3ncnc(N(C)Cc4cccc5ccccc45)c3n2)CC1` [Substance E, 2-[4-(N,N-dimethylaminomethyl)-piperidino]-8-[N-(napth-1-yl-methyl)-N-methyl-amino]-4-morpholino-pyrimido [5,4-d]pyrimidine], the IC50 in series [1] (setting [3]) worked out at 3 µg/mL; in series [1] (setting [4]), 0.1 µg/mL.
In the case of `CN(Cc1ccccc1)c1nc(N2CCC(N(C)C)CC2)nc2c(N3CCOCC3)ncnc12` [Substance F, 4-(N-benzyl-methyl-amino)-2-[4-(N,N-dimethylamino)-piperidino]-8-morpholino-pyrimido [5,4-d]pyrimidine], the 50% inhibitory concentration (IC50) in series [1] (setting [3]) was found to be 3 µg/mL; in series [1] (setting [4]), 0.3 µg/mL.
As for `COc1cc2c(cc1OC)CN(c1ncnc3c(N4CCOCC4)nc(N4CCC(N(C)C)CC4)nc13)CC2` [Substance G, 2-[4-(N,N-dimethylamino)-piperidino]-8-(6,7-dimethoxy-1,2,3,4-tetrahydro-isoquinolin-2-yl)-4-morpholino-pyrimido [5,4-d]pyrimidine], the “toxic side effects / tolerability” value in series [2] is recorded as “did not lead to any detectable toxic side effects”. Moreover, the IC50 in series [1] (setting [3]) stood at 3 µg/mL; in series [1] (setting [4]), 0.1 µg/mL.
For the molecule `CN(Cc1cccc2ccccc12)c1ncnc2c(N3CCOCC3)nc(N3CCC(N(C)C)CC3)nc12` [Substance H, 2-[4-(N,N-dimethylamino)-piperidino]-8-[N-(naphth-1-yl-methyl)-N-methyl-amino]-4-morpholino-pyrimido [5,4-d]pyrimidine], the IC50 in series [1] (setting [3]) turned out to be 3 µg/mL; in series [1] (setting [4]) it was 0.1 µg/mL.
Taken in the same sequence, the figures for `CN(Cc1ccccc1)c1nc(N2CCC(NCC(c3ccccc3)c3ccccc3)CC2)nc2c(N3CCOCC3)ncnc12` [Substance I, 2-[4-(2,2-diphenylethylamino)-piperidino]-4-(N-benzyl-N-methyl-amino)-8-morpholino-pyrimido-[5,4-d]pyrimidine] were 10 µg/mL and 0.3 µg/mL.
On the same counts, the results for `CN(C)C1CCN(c2nc(N3CCOCC3)c3ncnc(N(CCCNC(=O)c4ccccc4)Cc4ccccc4)c3n2)CC1` [Substance J, 2-[4-(N, N-dimethylamino)-piperidino]-8-[N-benzyl-N-(3-benzoylaminopropyl)-amino]-4-morpholino-pyrimido-[5,4-d]pyrimidine] are 3 µg/mL and 0.1 µg/mL.
As to `CN(Cc1cccc2ccccc12)c1nc(N2CCC(N(C)C)CC2)nc2c(N3CCOCC3)ncnc12` [Substance K, 2-[4-(N,N-dimethylamino)-piperidino]-4-[N-(naphth-1-yl-methyl)-N-methyl-amino]-8-morpholino-pyrimido-[5,4-d]pyrimidine], the IC50 in series [1] (setting [3]) turned out to be 3 µg/mL; in series [1] (setting [4]) it was 0.1 µg/mL.
